Experimental findings from US9113629B2, “4-amino-6-(4-substituted-phenyl)-picolinates and 6-amino-2-(4-substituted-phenyl)-pyrimidine-4-carboxylates and their use as herbicides” (DOW AGROSCIENCES LLC, priority 2013, dated 2015) are described below.

Read-outs that look alike come from different tables or passages of the source.

The test system of series [1] is Key Grass and Sedge Weeds as well as Grass Crops. As to the kind of experiment: Post-emergent Test II herbicidal activity (Table 6). Format: in vivo. The settings on record: post-emergence, 336 h; for pest or weed control at 70 g/ha: application rate 70 g ai/ha; for pest or weed control at 140 g/ha: application rate 140 g ai/ha. As to the method: (§1) Post-emergent Test II: Seeds or nutlets of the desired test plant species were planted in Sun Gro Metro-Mix® 360 planting mixture, which typically has a pH of 6.0 to 6.8 and an organic matter content of about 30 percent, in plastic pots with a surface area of 64 square centimeters. When required to ensure good germination and healthy plants, a fungicide treatment and/or other chemical or physical treatment was applied. The plants were grown for 7-21 d in a greenhouse with an approximate 15 h photoperiod which was maintained at about 23-29° C. during the day and 22-28° C. during the night. Nutrients and water were added on a regular basis and supplemental lighting was provided with overhead metal halide 1000-Watt lamps as necessary. The plants were employed for testing when they reached the first or second true leaf stage.
(§2) A weighed amount, determined by the highest rate to be tested, of each test compound was placed in a 25 mL glass vial and was dissolved in 4 mL of a 97:3 v/v mixture of acetone and DMSO to obtain concentrated stock solutions. […] The concentrated stock solutions obtained were diluted with 20 mL of an aqueous mixture containing acetone, water, isopropyl alcohol, DMSO. Atplus 411F crop oil concentrate, and Triton® X-155 surfactant in a 48.5:39:10:1.5:1.0:0.02 v/v ratio to obtain spray solutions containing the highest application rates. Additional application rates were obtained by serial dilution of 12 mL of the high rate solution into a solution containing 2 mL of 97:3 v/v mixture of acetone and DMSO and 10 mL of an aqueous mixture containing acetone, water, isopropyl alcohol, DMSO, Atplus 411F crop oil concentrate, and Triton X-155 surfactant in a 48.5:39:10:1.5:1.0:0.02 v/v ratio to obtain ½×, ¼×, ⅛× and 1/16× rates of the high rate. Compound requirements are based upon a 12 mL application volume at a rate of 187 liters per hectare (L/ha). Formulated compounds were applied to the plant material with an overhead Mandel track sprayer equipped with 8002E nozzles calibrated to deliver 187 L/ha over an application area of 0.503 square meters at a spray height of 18 inches (43 cm) above the average plant canopy height. Control plants were sprayed in the same manner with the solvent blank.
(§3) The treated plants and control plants were placed in a greenhouse as described above and watered by subirrigation to prevent wash-off of the test compounds. After 14 d, the condition of the test plants as compared with that of the untreated plants was determined visually and scored on a scale of 0 to 100 percent where 0 corresponds to no injury and 100 corresponds to complete kill.

Series [2] concerns Key Broadleaf Weed and Crop Species. Put plainly: Post-emergent Test II herbicidal activity (Table 5). Format: in vivo. The settings on record: post-emergence, 336 h, post-emergent, 14 days after application; for pest or weed control at 70 g/ha: 70 g ai/ha; for pest or weed control at 140 g/ha: 140 g ai/ha. As to the method: as §1, §2, §3
Setting [3] is: CYPES: yellow nutsedge (Cyperus esculentus), read-out: Visual Growth Reduction (%) 14 Days After Application, CYPES.
Where [4] appears, read: DIGSA: crabgrass (Digitaria sanguinalis), read-out: Visual Growth Reduction (%) 14 Days After Application, DIGSA.
Where [5] appears, read: ECHCG: barnyardgrass (Echinochloa crus-galli), read-out: Visual Growth Reduction (%) 14 Days After Application, ECHCG.
[6] abbreviates: ORYSA: rice (Oryza sativa), read-out: Visual Growth Reduction (%) 14 Days After Application, ORYSA.
The mark [7] stands for this setting: SETFA: giant foxtail (Setaria faberi), read-out: Visual Growth Reduction (%) 14 Days After Application, SETFA.
Where [8] appears, read: SORVU: grain sorghum (Sorghum vulgare), read-out: Visual Growth Reduction (%) 14 Days After Application, SORVU.
The mark [9] stands for this setting: TRZSS (wheat, Triticum aestivum), read-out: Visual Growth Reduction (%) 14 Days After Application, TRZSS.
Setting [10] is: ZEAMX: maize, corn (Zea mays), read-out: Visual Growth Reduction (%) 14 Days After Application, ZEAMX.
Where [11] appears, read: ABUTH: velvetleaf (Abutilon theophrasti), read-out: Visual Growth Reduction (%) 14 Days After Application ABUTH.
[12] abbreviates: BRSNN: oilseed-rape, canola (Brassica napus), read-out: Visual Growth Reduction (%) 14 Days After Application BRSNN.
The mark [13] stands for this setting: CHEAL: lambsquarters (Chenopodium album), read-out: Visual Growth Reduction (%) 14 Days After Application CHEAL.
Setting [14] is: EPHHL: wild poinsettia (Euphorbia heterophylla), read-out: Visual Growth Reduction (%) 14 Days After Application EPHHL.
Setting [15] is: HELAN: sunflower (Helianthus annuus), read-out: Visual Growth Reduction (%) 14 Days After Application HELAN.
The mark [16] stands for this setting: VIOTR: wild pansy (Viola tricolor), read-out: Visual Growth Reduction (%) 14 Days After Application VIOTR.
The mark [17] stands for this setting: Triticum aestivum, TRZSS (wheat), read-out: Visual Growth Reduction (%) 14 Days After Application, TRZSS.
The mark [18] stands for this setting: AMARE: redroot pigweed (Amaranthus retroflexus), read-out: Visual Growth Reduction (%) 14 Days After Application AMARE.

By melting point is commonly meant the temperature of the solid-liquid transition. `Cc1c(-c2ccc(I)c(F)c2)nc(C(=O)O)c(Cl)c1N` [Compound 87, 4-Amino-3-chloro-6-(3-fluoro-4-iodophenyl)-5-methylpicolinic acid] showed a melting point of 171 to 172 °C. In series [1] (setting [3]), the pest or weed control at 70 g/ha was 0 to 29% and the pest or weed control at 140 g/ha fell in the range of 45 to 59%. In addition, in series [1] (setting [4]), the pest or weed control at 70 g/ha lay within 60 to 74% and the pest or weed control at 140 g/ha lay in the range of 60 to 74%. In addition, in series [1] (setting [5]), the pest or weed control at 70 g/ha was 75 to 84% and the pest or weed control at 140 g/ha was in the range of 75 to 84%. Besides, in series [1] (setting [6]), the pest or weed control at 70 g/ha lay within 0 to 29% and the pest or weed control at 140 g/ha was 0 to 29%. Moreover, in series [1] (setting [7]), the pest or weed control at 70 g/ha is 60 to 74% and the pest or weed control at 140 g/ha was 75 to 84%. In addition, in series [1] (setting [8]), the pest or weed control at 70 g/ha was in the range of 60 to 74% and the pest or weed control at 140 g/ha lay within 60 to 74%. Moreover, in series [1] (setting [9]), the pest or weed control at 70 g/ha lay within 60 to 74% and the pest or weed control at 140 g/ha is 60 to 74%. In addition, in series [1] (setting [10]), the pest or weed control at 70 g/ha is 60 to 74% and the pest or weed control at 140 g/ha lay within 60 to 74%. In series [2] (setting [11]), the pest or weed control at 70 g/ha was 85 to 94% and the pest or weed control at 140 g/ha was 85 to 94%. In series [2] (setting [12]), the pest or weed control at 70 g/ha lay in the range of 95 to 100% and the pest or weed control at 140 g/ha was in the range of 95 to 100%. Moreover, in series [2] (setting [13]), the pest or weed control at 70 g/ha lay within 85 to 94% and the pest or weed control at 140 g/ha was 85 to 94%. Moreover, in series [2] (setting [14]), the pest or weed control at 70 g/ha was in the range of 0 to 29% and the pest or weed control at 140 g/ha was 0 to 29%. Besides, in series [2] (setting [15]), the pest or weed control at 70 g/ha is 85 to 94% and the pest or weed control at 140 g/ha fell in the range of 85 to 94%. In series [2] (setting [16]), the pest or weed control at 70 g/ha was in the range of 60 to 74% and the pest or weed control at 140 g/ha is 85 to 94%.

In turn, `C#Cc1ccc(-c2nc(N)c(OC)c(C(=O)OC)n2)cc1` [Compound 166] came in with a melting point of 148.2 to 150.9 °C. Further, in series [1] (setting [17]), the pest or weed control at 140 g/ha fell in the range of 0 to 29%. Further, the pest or weed control at 140 g/ha in series [1] (setting [3]) was 45 to 59%. Further, in series [1] (setting [4]), the pest or weed control at 140 g/ha is 0 to 29%. The pest or weed control at 140 g/ha in series [1] (setting [5]) was 0 to 29%. The pest or weed control at 140 g/ha in series [1] (setting [6]) was 0 to 29%. For the same compound, the pest or weed control at 140 g/ha in series [1] (setting [7]) lay in the range of 0 to 29%. In addition, in series [1] (setting [8]), the pest or weed control at 140 g/ha lay in the range of 0 to 29%. Besides, the pest or weed control at 140 g/ha in series [1] (setting [10]) lay in the range of 45 to 59%. Further, the pest or weed control at 140 g/ha in series [2] (setting [11]) lay in the range of 0 to 29%. Besides, in series [2] (setting [18]), the pest or weed control at 140 g/ha was 95 to 100%. Besides, in series [2] (setting [12]), the pest or weed control at 140 g/ha was 0 to 29%. In series [2] (setting [13]), the pest or weed control at 140 g/ha was in the range of 60 to 74%. In series [2] (setting [14]), the pest or weed control at 140 g/ha lay in the range of 95 to 100%. Also, the pest or weed control at 140 g/ha in series [2] (setting [15]) is 85 to 94%. Moreover, in series [2] (setting [16]), the pest or weed control at 140 g/ha was in the range of 0 to 29%.

`Nc1c(Cl)c(C(=O)O)nc(-c2ccc(OC(F)(F)F)cc2)c1Cl` [Compound 105] displayed a melting point of 141.9 to 143.1 °C. In addition, in series [1] (setting [17]), the pest or weed control at 140 g/ha lay in the range of 0 to 29%. Moreover, in series [1] (setting [3]), the pest or weed control at 140 g/ha lay in the range of 0 to 29%. Moreover, the pest or weed control at 140 g/ha in series [1] (setting [4]) fell in the range of 0 to 29%. Also, the pest or weed control at 140 g/ha in series [1] (setting [5]) lay within 0 to 29%. Also, in series [1] (setting [6]), the pest or weed control at 140 g/ha lay in the range of 0 to 29%. In series [1] (setting [7]), the pest or weed control at 140 g/ha is 0 to 29%. Also, the pest or weed control at 140 g/ha in series [1] (setting [8]) lay within 0 to 29%. The pest or weed control at 140 g/ha in series [1] (setting [10]) lay within 0 to 29%. For the same compound, in series [2] (setting [11]), the pest or weed control at 140 g/ha fell in the range of 0 to 29%. In series [2] (setting [18]), the pest or weed control at 140 g/ha lay within 0 to 29%. Moreover, in series [2] (setting [12]), the pest or weed control at 140 g/ha is 0 to 29%. Moreover, the pest or weed control at 140 g/ha in series [2] (setting [13]) was 0 to 29%. Moreover, the pest or weed control at 140 g/ha in series [2] (setting [14]) is 0 to 29%. Besides, the pest or weed control at 140 g/ha in series [2] (setting [15]) lay in the range of 95 to 100%. For the same compound, the pest or weed control at 140 g/ha in series [2] (setting [16]) was in the range of 0 to 29%.

For `C#Cc1ccc(-c2cc(N)c(Cl)c(C(=O)O)n2)cc1` [Compound 48], the melting point was in the range of 204.2 to 205.9 °C. The pest or weed control at 140 g/ha in series [1] (setting [17]) is 30 to 44%. Besides, the pest or weed control at 140 g/ha in series [1] (setting [3]) was in the range of 0 to 29%. Also, the pest or weed control at 140 g/ha in series [1] (setting [4]) was in the range of 60 to 74%. Also, in series [1] (setting [5]), the pest or weed control at 140 g/ha was in the range of 75 to 84%. In series [1] (setting [6]), the pest or weed control at 140 g/ha is 0 to 29%. Further, in series [1] (setting [7]), the pest or weed control at 140 g/ha lay within 0 to 29%. In addition, in series [1] (setting [8]), the pest or weed control at 140 g/ha fell in the range of 0 to 29%. Moreover, in series [1] (setting [10]), the pest or weed control at 140 g/ha lay within 0 to 29%. Also, in series [2] (setting [11]), the pest or weed control at 140 g/ha lay within 95 to 100%. Besides, in series [2] (setting [18]), the pest or weed control at 140 g/ha fell in the range of 95 to 100%. The pest or weed control at 140 g/ha in series [2] (setting [12]) was 85 to 94%. In addition, the pest or weed control at 140 g/ha in series [2] (setting [13]) lay within 85 to 94%. Besides, in series [2] (setting [14]), the pest or weed control at 140 g/ha fell in the range of 95 to 100%. Besides, the pest or weed control at 140 g/ha in series [2] (setting [15]) lay in the range of 95 to 100%. Moreover, the pest or weed control at 140 g/ha in series [2] (setting [16]) lay within 0 to 29%.
